Test results published in patent US12590100B2, “Tetrahydro-spiroindoline-pyrrolopyrrole-triones inhibitors of the NRF2-β-TrCP interaction for use in the treatment of fatty liver disease” (Universidad Autonoma De Madrid, priority 2021, dated 2026).
Entries after “also recorded” stand apart in the source; their conditions may differ.

Tested on: β-TrCP1 and β-TrCP2
Test: NRF2/HO-1 induction after lentiviral silencing of β-TrCP1/2 in Keap1−/− MEFs
Assay type: cell-based, mouse
Procedure: In vitro kinase assay and in vitro ubiquitination. For the recognition and degradation of NRF2 by βTrCP, the serines 335, 338, 342 and 347 located at the Neh6 domain of NRF2 need to be previously phosphorylated by the kinase GSK-3β (FIG. 1). Therefore, to obtain the phosphorylated substrate, 20 ng recombinant NRF2-DETGE was used together with 0.5 μg of recombinant GSK-3β incubated at 30° C. for 60 min. The result was analyzed by western blot. After confirming the existence of phosphorylation in the residues of interest, an in vitro ubiquitination assay was carried out using the recombinant proteins that make up the E3 ubiquitin ligase complex. The ubiquitination reaction was carried out using: ATP (2 mM), […], SCF-βTrCP (450 nM), and non-phosphorylated or phosphorylated NRF2 (20 ng), in a specific ubiquitination buffer (30 mM Tris pH 7.6, 5 mM MgCl2, 2 mM dithiothreitol, 100 mM NaCl). Before the ubiquitination reactions, the E1, Cdc34b, and ubiquitin components were incubated together for 2 min to allow the E2 thioester bond to form. The reactions were incubated for 1 hour at 25° C. in the presence or absence of PHAR (3 μM) in order to determine whether or not PHAR inhibits ubiquitination by βTrCP. […] The PI3K/AKT signaling pathway is inhibited, and therefore GSK-3β is activated with the PI3K inhibitor, LY294002. As a result, NRF2 is phosphorylated by GSK-3β and marked for degradation by means of interaction with β-TrCP. Therefore, if PHAR is capable of inhibiting βTrCP-NRF2 interaction, the NRF2 levels will remain stable independently of the activation and phosphorylation by GSK-3β. The obtained result corroborates this. • 3. Using lentiviral silencing of the two isoforms described for β-TrCP (β-TrCP1 and β-TrCP2) in MEFs originating from Keap1 knockout mice (Keap′1−/−).
FIG. 6. PHAR increases NRF2 protein levels in a β-TrCP-dependent manner. A) In vitro phosphorylation of recombinant NRF2-DETGE by recombinant GSK-3β. Phosphorylation at residues 335, 338, 342 and 347 was analyzed by western blot. B) In vitro ubiquitination of NRF2 or pNRF2 by the βTrCP complex. NRF2 and pNRF2 (20 ng) were incubated at 25° C. for 1 h with purified ubiquitin, E1/cdc34b, βTrCP/Skp1 and Cull/Rbx1 as indicated in the presence or absence of PHAR […] or vehicle (DMSO). Polyubiquitinated NRF2 was detected by western blot with anti-ubiquitin antibody. […] E), densitometric analysis of NRF2 protein levels of the representative immunoblot of (D), expressed as a ratio of NRF2/GAPDH. […] G), densitometric analysis of NRF2 and HO1 protein levels of the representative immunoblots of (F), expressed as a ratio of NRF2 and HO1/GAPDH. […]

O=C1[C@@H]2[C@H](Cc3c[nH]c4ccccc34)N[C@]3(C(=O)Nc4ccc(Cl)cc43)[C@@H]2C(=O)N1c1ccc2c(c1)OCCO2 [PHAR]
HO-1 accumulation in sh β-TrCP1/2 cells compared with shCTRL (PHAR 10 μM): considerably lower; also recorded: lower in cells lacking β-TrCP1/2 | Hmox1 and Nqo1 mRNA induction in sh β-TrCP1/2 cells (PHAR 10 μM): induction generated by PHAR is lost | NRF2 levels in shCTRL cells (PHAR 10 μM, 2, 4, 8 h): increase in NRF2 levels from 2 h to 8 h | NRF2 accumulation in sh β-TrCP1/2 cells compared with shCTRL (silencing about 50%, PHAR 10 μM): considerably lower; also recorded: significantly lower compared with shCTRL cells
